Source: patent publication US7320984B2, “Remedies or preventives for urinary frequency or urinary incontinence and morphinan derivatives having nitrogen-containing heterocyclic group” (Toray Industries, Inc., priority 2002, dated 2008)

What follows are compounds tested on rhythmic bladder contractions in rats (assay: Inhibitory effect against rhythmic bladder contractions in rats). Conditions: anesthetized female SD rats, intravenous, dose 0.003 mg/kg body weight.
Type: in vivo
Protocol: Inhibitory Effect Against Rhythmic Bladder Contractions in Rats
Female SD rats were anesthetized with an intraperitoneal administration of urethane (1.0 g/kg). A polyethylene tube was inserted from the urethra to the bladder and the tube was fixed by ligation. Then physiological saline was appropriately infused (infusion rate: about 0.2 ml/min., maximum: about 1.5 ml/animal) through the tube to cause rhythmic bladder contractions. The rhythmic bladder contractions were monitored by measuring the intravesical pressure through a polyethylene tube inserted into the bladder. After confirming that stable rhythmic bladder contractions occurred at least 10 times, a vehicle containing a prescribed dose of a test compound was intravenously administration at a dose of 1 ml/kg. In cases where the intravesical pressure, within 10 minutes after the administration of the test compound, decreased to 50% or less of the intravesical pressure immediately […] the administration, the test compound was judged as having inhibitory effect against urinary bladder contractions, and the time period until the intravesical pressure returned to more than 50% was defined as inhibitory time of rhythmic bladder contractions. As the vehicle for administration, physiological saline was used for test compounds 4, 7, 8, 9, 10, 13, 29, 30, 31, 33, 34, 75, 76, 79, 80, 81, 82, 84, 89, 90, 91, 93, 94, 95, 110 and 111, aqueous 10% dimethylsulfoxide (DMSO) solution was used for test compounds 11, 12, 14, 15, 16, 17, 18, 20, 21, 23, 28, 46, 47, 50, 55, 56, 57, 58, 59, 60, 61, 62, 63, 64, 65, 66, 68, 69, 70, 71, 72, 73, 74, 77, 78, 83, 85, 86, 87, 88, 92, 96, 97, 98, 99, 100, […], 103, 104, 105, 106, 107, 108 and […], aqueous 20% dimethylsulfoxide (DMSO) solution was used for test compounds 1, 2, 67 and 101, and aqueous 5% xylitol solution was used for test compounds 5 and 35. The aqueous 10% DMSO solution, aqueous 20% DMSO solution and the aqueous 5% xylitol solution per se, which may influence on the inhibitory time of rhythmic bladder contractions, were also tested at a dose of 1 ml/kg. With any of the compounds, prolongation of the inhibitory time of rhythmic bladder contractions was observed when compared with that obtained in the group to which the vehicle alone was administered.

Row | SMILES | Mean Inhibitory Time of Rhythmic Bladder Contractions [min]
1 | O=C1c2ccccc2C(=O)N1[C@H]1CC[C@@]2(O)[C@H]3Cc4ccc(O)c5c4[C@@]2(CCN3CC2CC2)[C@H]1O5 [Compound 66, N-(17-cyclopropylmethyl-4,5α-epoxy-3,14-dihydroxymorphinan-6α-yl)-phthalimide] | 27.4

Same assay, conditions: anesthetized female SD rats, intravenous, dose 0.01 mg/kg body weight

Row | SMILES | Mean Inhibitory Time of Rhythmic Bladder Contractions [min]
2 | C=CCN1CC[C@]23c4c5ccc(O)c4O[C@H]2[C@@H](N2C(=O)c4ccc(F)cc4C2=O)CC[C@@]3(O)[C@H]1C5 [Compound 65, N-(17-allyl-4,5α-epoxy-3,14-dihydroxymorphinan-6α-yl)-4-fluorophthalimide] | 18.6
3 | O=S1(=O)c2ccccc2S(=O)(=O)N1[C@@H]1CC[C@@]2(O)[C@H]3Cc4ccc(O)c5c4[C@@]2(CCN3CC2CC2)[C@H]1O5 [Compound 107, 2-(17-cyclopropylmethyl-4,5α-epoxy-3,14-dihydroxy-morphinan-6β-yl)-benzo[1,3,2]dithiazol-1,1,3,3-tetraoxide] | 14.1
4 | O=C1c2ccc(Cl)cc2C(=O)N1[C@@H]1CC[C@@]2(O)[C@H]3Cc4ccc(O)c5c4[C@@]2(CCN3CC2CC2)[C@H]1O5 [Compound 15, N-(17-cyclopropylmethyl-4,5α-epoxy-3,14-dihydroxy-morphinan-6β-yl)-4-chlorophthalimide] | 12.2
5 | Cc1cccc2c1C(=O)N([C@@H]1CC[C@@]3(O)[C@H]4Cc5ccc(O)c6c5[C@@]3(CCN4CC3CC3)[C@H]1O6)C2=O [Compound 18, N-(17-cyclopropylmethyl-4,5α-epoxy-3,14-dihydroxy-morphinan-6β-yl)-3-methylphthalimide] | 13.7

Same assay, conditions: anesthetized female SD rats, intravenous, dose 0.03 mg/kg body weight

Row | SMILES | Mean Inhibitory Time of Rhythmic Bladder Contractions [min]
6 | C=CCN1CC[C@]23c4c5ccc(O)c4O[C@H]2[C@H](N2C(=O)c4ccccc4C2=O)CC[C@@]3(O)[C@H]1C5 [Compound 13, N-(17-allyl-4,5α-epoxy-3,14-dihydroxy-morphinan-6β-yl)-phthalimide] | 11.7
7 | C=CCN1CC[C@]23c4c5ccc(O)c4O[C@H]2[C@@H](N2C(=O)C4=C(CCCC4)C2=O)CC[C@@]3(O)[C@H]1C5 [Compound 74, N-(17-allyl-4,5α-epoxy-3,14-dihydroxymorphinan-6α-yl)-3,4,5,6-tetrahydrophthalimide] | 24.0
8 | CC(=O)O[C@@]12CC[C@@H](N3C(=O)c4ccccc4C3=O)[C@@H]3Oc4c(O)ccc5c4[C@@]31CCN(CC1CC1)[C@@H]2C5 [Compound 91, N-(14-acetoxy-17-cyclopropylmethyl-4,5α-epoxy-3-hydroxymorphinan-6β-yl)-phthalimide] | 14.7
9 | C=CCN1CC[C@]23c4c5ccc(O)c4O[C@H]2[C@H](N2C(=O)c4ccc(F)cc4C2=O)CC[C@@]3(O)[C@H]1C5 [Compound 58, N-(17-allyl-4,5α-epoxy-3,14-dihydroxymorphinan-6β-yl)-4-fluorophthalimide] | 19.3

Same assay, conditions: anesthetized female SD rats, intravenous, dose 0.1 mg/kg body weight

Row | SMILES | Mean Inhibitory Time of Rhythmic Bladder Contractions [min]
10 | O=C1/C(=C/c2ccccc2)CCN1[C@@H]1CC[C@@]2(O)[C@H]3Cc4ccc(O)c5c4[C@@]2(CCN3CC2CC2)[C@H]1O5 [Compound 50, 1-(17-cyclopropylmethyl-4,5α-epoxy-3,14-dihydroxy-morphinan-6β-yl)-3-benzylidene-pyrrolidin-2-one] | 12.8
11 | C=CCN1CC[C@]23c4c5ccc(O)c4O[C@H]2[C@H](N2Cc4ccc(F)cc4C2=O)CC[C@@]3(O)[C@H]1C5 [Compound 90, 2-(17-allyl-4,5α-epoxy-3,14-dihydroxy-morphinan-6β-yl)-6-fluoro-2,3-dihydro-isoindol-1-one] | 17.6
12 | O=c1[nH]c2ccccc2c(=O)n1[C@@H]1CC[C@@]2(O)[C@H]3Cc4ccc(O)c5c4[C@@]2(CCN3CC2CC2)[C@H]1O5 [Compound 104, 3-(17-cyclopropylmethyl-4,5α-epoxy-3,14-dihydroxy-morphinan-6β-yl)-1H-quinazolin-2,4-dione] | 13.5
13 | C=CCN1CC[C@]23c4c5ccc(O)c4O[C@H]2[C@H](N2C(=O)c4ccc(Cl)cc4C2=O)CC[C@@]3(O)[C@H]1C5 [Compound 57, N-(17-allyl-4,5α-epoxy-3,14-dihydroxymorphinan-6β-yl)-4-chlorophthalimide] | 24.2
14 | C=CCN1CC[C@]23c4c5ccc(O)c4O[C@H]2[C@H](N2Cc4ccccc4C2=O)CC[C@@]3(O)[C@H]1C5 [Compound 86, 2-(17-allyl-4,5α-epoxy-3,14-dihydroxy-morphinan-6β-yl)-2,3-dihydro-isoindol-1-one] | 12.1
15 | CN1CC[C@]23c4c5ccc(O)c4O[C@H]2[C@H](N2C(=O)c4ccccc4C2=O)CC[C@H]3[C@H]1C5 [Compound 95, N-(4,5α-epoxy-3-hydroxy-17-methyl-morphinan-6β-yl)-phthalimide] | 15.0
16 | C=CCN1CC[C@]23c4c5ccc(O)c4O[C@H]2[C@H](N2Cc4c(F)cccc4C2=O)CC[C@@]3(O)[C@H]1C5 [Compound 89, 2-(17-allyl-4,5α-epoxy-3,14-dihydroxy-morphinan-6β-yl)-4-fluoro-2,3-dihydro-isoindol-1-one] | 12.5
17 | C=CCN1CC[C@]23c4c5ccc(O)c4O[C@H]2[C@H](N2CC4=C(CCCC4)C2=O)CC[C@@]3(O)[C@H]1C5 [Compound 84, 2-(17-allyl-4,5α-epoxy-3,14-dihydroxy-morphinan-6-yl)-2,3,4,5,6,7-hexahydro-isoindol-1-one] | 9.3
18 | CCCN1CC[C@]23c4c5ccc(O)c4O[C@H]2[C@H](N2C(=O)c4ccccc4C2=O)CC[C@@]3(O)[C@H]1C5 [Compound 94, N-(4,5α-epoxy-3,14-dihydroxy-17-propyl-morphinan-6β-yl)-phthalimide] | 11.9
19 | O=C1CC(c2ccccc2)C(=O)N1[C@@H]1CC[C@@]2(O)[C@H]3Cc4ccc(O)c5c4[C@@]2(CCN3CC2CC2)[C@H]1O5 (stereo partly drawn) [Compound 71, N-(17-cyclopropylmethyl-4,5α-epoxy-3,14-dihydroxymorphinan-6β-yl)-2-phenyl-succinimide] | 24.9
20 | O=C1C(c2ccccc2)=C(c2ccccc2)C(=O)N1[C@@H]1CC[C@@]2(O)[C@H]3Cc4ccc(O)c5c4[C@@]2(CCN3CC2CC2)[C@H]1O5 [Compound 70, N-(17-cyclopropylmethyl-4,5α-epoxy-3,14-dihydroxymorphinan-6β-yl)-2,3-diphenylmaleimide] | 8.9

Same assay, conditions: anesthetized female SD rats, intravenous, dose 0.3 mg/kg body weight

Row | SMILES | Mean Inhibitory Time of Rhythmic Bladder Contractions [min]
21 | CCCN1CC[C@]23c4c5ccc(O)c4O[C@H]2[C@H](N2C(=O)c4cccc(N)c4C2=O)CC[C@@]3(O)[C@H]1C5 [Compound 101, N-(4,5α-epoxy-3,14-dihydroxy-17-propyl-morphinan-6β-yl)-3-amino-phthalimide] | 15.1

Same assay, conditions: anesthetized female SD rats, intravenous, dose 1.0 mg/kg body weight

Row | SMILES | Mean Inhibitory Time of Rhythmic Bladder Contractions [min]
22 | O=C1CCCN1[C@H]1CC[C@@]2(O)[C@H]3Cc4ccc(O)c5c4[C@@]2(CCN3CC2CC2)[C@H]1O5 [Compound 34, 1-(17-cyclopropylmethyl-4,5α-epoxy-3,14-dihydroxy-morphinan-6α-yl)-pyrrolidin-2-one] | 9.2
23 | CN1CC[C@]23c4c5ccc(O)c4O[C@H]2[C@H](N2CC(=O)Nc4ccccc42)CC[C@@]3(O)[C@H]1C5 [Compound 7, 4-(4,5α-epoxy-3,14-dihydroxy-17-methyl-morphinan-6β-yl)-3,4-dihydro-1H-quinoxalino-2-one] | 3.8
24 | O=C1C/C(=C\C2CCCCC2)C(=O)N1[C@@H]1CC[C@@]2(O)[C@H]3Cc4ccc(O)c5c4[C@@]2(CCN3CC2CC2)[C@H]1O5 [Compound 23, N-(17-cyclopropylmethyl-4,5α-epoxy-3,14-dihydroxy-morphinan-6β-yl)-2-cyclohexylmethylidene-succinimide] | 32.0

Same assay, conditions: anesthetized female SD rats, intravenous, dose 3.0 mg/kg body weight

Row | SMILES | Mean Inhibitory Time of Rhythmic Bladder Contractions [min]
25 | CCN(CC)C(=O)[C@H]1CCCN1[C@@H]1CC[C@@]2(O)[C@H]3Cc4ccc(O)c5c4[C@@]2(CCN3C)[C@H]1O5 [Compound 30, 1-(4,5α-epoxy-3,14-dihydroxy-17-methyl-morphinan-6β-yl)-pyrrolidin-(2R)-carboxyl diethylamide] | 2.3
